The experiment addresses T1, AbPPO4 (Agaricus bisporus, UniProt C7FF05, S179N/V121A).
T1 construct: GST (glutathione-S-transferase) (N, cleaved yes); made in house; host or cells: E. coli BL21(DE3)
The class given is biochemical. Also noted: α · Ki: unit not given here. The conditions noted are these: for Inhibition type / α (inhibition parameter) from the Lineweaver–Burk intercepts / Ki / α (inhibition parameter) from activity plot: 50 mM Na-citrate pH 6.8; for Inhibition type: L-DOPA substrate; for α · Ki: from Lineweaver-Burk ordinate intercepts vs [I], [S] 0.4-[…] (Table S5); for α (inhibition parameter) from activity plot: hyperbolic fit. Here is the method: AbPPO4 was purified and activated according to Pretzler et al.[15]. […] The diphenolase activity of tyrosinase was monitored using 1 mM L-DOPA (Fig. S1A) as the substrate. Considering that the Wells–Dawson POT stability is pH and possibly time dependent, a speciation study was performed which is detailed in the paragraph "Speciation of Wells–Dawson POT by ^183W-NMR and ^31P-NMR analyses at pH 6.8". The concentration of the investigated Wells–Dawson phosphotungstates was in the range between 0 and 5 mM. If enzymatic inhibition was observed, data were taken in triplicates and fitted with a hyperbolic function (cf. SI Eq. (5)) from a mixed inhibition model to evaluate the Ki and α-parameters. […] (Fig. S1B) was additionally tested and evaluated applying exactly the same mathematical model.
The type of enzymatic inhibition is usually investigated by linear plots according to Lineweaver–Burk, also allowing for further validation of the inhibitory constant Ki.[9] […] The slopes (SI Eq. (13), insets in Figs. S14–S17) and ordinate intercepts of these regression lines were further evaluated to validate the inhibitory constant Ki and the α-parameter from the non-linear regression procedure. […] Similarly, the Lineweaver–Burk ordinate intercepts were evaluated for the α-parameter (cf. Table S5 and Table 1).
UV–VIS measurements were carried out on a Shimadzu UV 2401PC following the specific absorption of dopachrome at 475 nm (ε = 3700 M^−1 cm^−1[7]). For all measurements, 50 mM Na-citrate at pH 6.8 was used as the buffer agent to ensure physiological conditions. The stock solutions of POTs were prepared on the day of measurements and used within 3 days.
For a general 1 mL reaction setup in a polystyrene cuvette, 1 µg/mL AbPPO4 (~ 23 nM) was used to catalyze the reaction. The relative inhibition was investigated using 1 mM L-DOPA as the substrate and applying an inhibitor concentration range from 0 to 5 mM to obtain activity curves. For the Lineweaver–Burk plots, a L-DOPA concentration range of 0.4–1.5 mM was assayed for three different POT concentrations, respectively. […]
is the enzymatic reaction velocity, the maximal enzymatic velocity of the enzyme, the concentration for the half-maximal velocity and the substrate concentration. If enzyme inhibition is taken into account, apparent values (e.g., , , ) are employed. For all inhibition mechanisms the apparent maximal velocity is given by and the apparent Michalis-Menten constant is Equations (3) and (2) are inserted into equation (1). To obtain the relative inhibition (in %), is divided by the uninhibited enzymatic velocity .
Herein, [I] refers to the inhibitor concentration, Ki is the inhibition constant measuring the […]
The three ideal inhibition types are reflected by three limiting conditions for α, with α as quotient of the inhibition constant of the uncompetitive and competitive inhibition:
(A) 0 < α <<1: uncompetitive inhibition
(B) α = 1: non-competitive inhibition
(C) α >> 1: competitive inhibition […]
uncompetitive and non-competitive inhibition modes.
The concentration of L-DOPA was kept constant at 1 mM for all experiments.
The final hyperbolic equation (5) was used for the curve

Setting [1] is: L-DOPA 0.4-[…], three inhibitor concentrations, read-out: Ki (inhibition constant) from the Lineweaver–Burk slopes.
The mark [2] stands for this setting: hyperbolic fit of mixed inhibition model, 1 mM L-DOPA, 0-5 mM inhibitor, read-out: Ki (inhibition constant) from activity plot.

Read-outs that look alike come from different tables or passages of the source. Marks after values point to notes of the source that are not given here.

T1 sequence (C7FF05 1-383 V121A/S179N): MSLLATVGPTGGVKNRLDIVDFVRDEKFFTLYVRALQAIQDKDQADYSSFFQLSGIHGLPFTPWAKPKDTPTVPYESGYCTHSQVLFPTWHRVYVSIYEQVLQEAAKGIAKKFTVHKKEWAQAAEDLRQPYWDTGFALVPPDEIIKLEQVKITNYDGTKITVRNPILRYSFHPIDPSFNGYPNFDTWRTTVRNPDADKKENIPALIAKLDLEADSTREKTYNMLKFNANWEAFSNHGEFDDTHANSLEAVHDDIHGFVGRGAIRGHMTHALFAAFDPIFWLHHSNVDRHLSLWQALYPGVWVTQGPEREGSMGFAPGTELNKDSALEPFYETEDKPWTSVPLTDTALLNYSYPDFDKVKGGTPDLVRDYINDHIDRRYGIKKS

“K10[α2-P^V2W^VI17O61]·20H2O [[P2W17]^10−]”: the Inhibition type result was “mixed-type inhibition” and the “α · Ki” value is recorded as 0.10. Further, the “α (inhibition parameter) from the Lineweaver–Burk intercepts” value (L-DOPA 0.4-[…]) is 0.01^a, 0.01^b. The inhibition constant Ki (in general, a measure of affinity in units of concentration, obtained from inhibition or displacement) under setting [1] turned out to be 10.6 mM. Moreover, the Ki under setting [2] was 6.5 mM. For the setting “1 mM L-DOPA”, the “α (inhibition parameter) from activity plot” value is reported as 0.01^a, 0.01^b.

For the substance “K6[α/β-P^V2W^VI18O62]·14H2O [[P2W18]^6−]”, the Inhibition type result is recorded as “mixed-type inhibition” and the “α · Ki” value is reported as 2.85. For the same substance, the “α (inhibition parameter) from the Lineweaver–Burk intercepts” value (L-DOPA 0.4-[…]) stood at 0.22. For the same substance, the Ki under setting [1] was determined as 13 mM. The Ki under setting [2] is 9.7 mM. For the same substance, the “α (inhibition parameter) from activity plot” value (1 mM L-DOPA) is reported as 0.013.

Turning to “(NH4)12[H2P^V2W^VI12O48]·24H2O [[P2W12]^12−]”, the Inhibition type entry is recorded as “mixed-type inhibition” and the “α · Ki” value is given as 1.58. The “α (inhibition parameter) from the Lineweaver–Burk intercepts” value (L-DOPA 0.4-[…]) worked out at 0.28. Under setting [1], the Ki was 5.6 mM. Besides, under setting [2], the Ki is 7.5 mM. Further, under “1 mM L-DOPA”, the “α (inhibition parameter) from activity plot” value came to 0.017.

As for K12[P^V2W^VI15O56]·24H2O [[P2W15]^12−], the Inhibition type result is recorded as “mixed-type inhibition” and the “α · Ki” value is reported as 2.14. Also, under “L-DOPA 0.4-[…]”, the “α (inhibition parameter) from the Lineweaver–Burk intercepts” value was determined as 0.20. Moreover, the Ki under setting [1] was determined as 10.7 mM. Also, the Ki under setting [2] came out at 13.6 mM. Moreover, for the setting “1 mM L-DOPA”, the “α (inhibition parameter) from activity plot” value is 0.003.

(Values after article PMC8481536, “Wells–Dawson phosphotungstates as mushroom tyrosinase inhibitors: a speciation study” (Scientific Reports, 2021).)
